Experimental findings from patent US7910557B2, “Hair care product” (Maruzen Pharmaceuticals Co., Ltd., priority 2005, dated 2011) are described below.

Experiment [1] deals with T1, testosterone 5α-reductase (Rattus norvegicus, UniProt P24008).
T1 construct: 75 μl of S-9 (rat liver homogenate, Oriental Yeast Co., Ltd.); tissue Oriental Yeast Co., Ltd; host or cells: rat liver S-9 homogenate
T1 sequence (P24008 1-259): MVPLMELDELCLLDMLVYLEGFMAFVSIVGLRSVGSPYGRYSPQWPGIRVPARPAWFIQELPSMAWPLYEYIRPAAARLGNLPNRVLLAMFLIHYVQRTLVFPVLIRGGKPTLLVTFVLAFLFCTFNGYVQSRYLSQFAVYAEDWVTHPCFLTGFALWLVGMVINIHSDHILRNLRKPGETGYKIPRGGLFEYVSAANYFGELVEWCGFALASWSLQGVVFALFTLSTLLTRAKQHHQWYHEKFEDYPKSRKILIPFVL
Put plainly: Test for testosterone 5α-reductase inhibiting action (S-9 rat liver homogenate, GC quantification). The experiment is classed as biochemical.

Experiment [2] has as its system Normal human head hair papilla cells. As to the kind of experiment: Test for hair papilla cell growth promoting action (MTT assay). The settings on record: for Hair papilla cell growth promotion rate (%): 4 days, control = 100. The experiment is classed as cell-based. As to the method: Normal human head hair papilla cells were cultured using a papilla cell growth medium (Cell Application Inc.) containing 2% fetal bovine serum (FBS) and proliferation additives, then the cells were retrieved by trypsinization. The retrieved cells were diluted to a cell concentration of 1.0×10^4 cells/ml using a DMEM medium containing 10% FBS, after which the cells were inoculated in a collagen-coated 96-well plate, at a rate of 200 μl per well, followed by incubation for 3 days. After incubation, the medium was removed and then to the wells there were added 200 μl each of a sample solution in which a respective sample had been dissolved in serum-free DMEM. The wells were then incubated for a further 4 days.
Once incubation was over, the medium was removed, and then to the wells there was added 100 μl each of MTT dissolved in serum-free DMEM (final concentration 0.4 mg/ml). After 2 hours of incubation, the blue formazan formed inside the cells was extracted with 100 μl of 2-propanol. The absorbance of the extracts was measured at a 570 nm wavelength. Turbidity was measured at the same time, as absorbance at the 650 nm wavelength. The amount of blue formazan formed was taken as the difference between the two absorbances. As a control, the same measurements were carried out for specimens in which serum-less DMEM was added instead of the sample solutions. The hair papilla cell growth promotion rate (%) was calculated from the obtained results using the formula below. Hair papilla cell growth promotion rate(%)=A/B×100
In the formula, A represents “absorbance upon sample addition”, and B represents “absorbance without sample addition”.
In general terms: Tetrazolium dyes change colour on reduction, which living cells bring about.

The next experiment deals with FGF-7 gene. Put plainly: FGF-7 mRNA expression promotion in HFDPC (RT-PCR). The experiment is classed as cell-based, human. The settings on record: for mRNA expression promotion rate (%) FGF-7 mRNA: HFDPC, corrected by G3PDH, control = 100. On the procedure: (§1) The FGF-7 growth promoting action, VEGF growth promoting action and BMP-2 growth promoting action of the corosolic acid obtained in producing examples 1 and 2 (samples 1 and 2) were tested as follows.
(§2) Human hair follicle dermal papilla cells (HFDPC) were cultured using a human hair follicle dermal papilla cells growth medium (PCGM), then the cells were retrieved by trypsinization. The retrieved cells were diluted to a cell concentration of 2×10^5 cells/ml using a DMEM medium containing 10% FBS, after which the cells were inoculated in 60 mm-diameter Petri dishes, at a rate of 5 ml, followed by incubation overnight.
(§3) Once incubation was over, the cells were changed to a serum-less DMEM medium to which the samples (sample 1 and 2) had been added after two-hour incubation, then the cells were dissolved in 1 ml of a reagent for RNA extraction (TRIzol, Invitrogen Corporation). After addition of 200 μl of chloroform to the solutions, these were centrifuged (12000 rpm, 4° C., 15 minutes) and the top RNA layer was isolated. The RNA layer was concentrated in isopropanol. The total RNA concentrated and precipitated was dissolved in a TE solution (10 mM Tris-HCl/1 mM EDTA, pH 8.0), and was taken as a total RNA standard (sequence numbers 1 to 3) used in a template of quantitative RT-PCR for measuring the mRNA expression level of the FGF-7 gene, the VEGF gene and the BMP-2 gene. […]
(§4) After synthesizing single-strand DNA from 500 ng of total RNA in a PCR apparatus (TaKaRa PCR Thermal Cycler MP, TAKARA BIO INC.), the FGF-7 gene (sequence no. 4), the VEGF gene (sequence no. 5), the BMP-2 gene (sequence no. 6), and the G3PDH gene as an internal standard were amplified by PCR reaction, from the single-strand DNA, using specific sense primers (sequence nos. 7 to 9) and antisense primers (sequence nos. 10 to 12) of the respective genes, then 10 μl of the amplified product were electrophoresed on 1.2% agarose gel. […] Then the RT-PCR products were quantitatively measured using KODAK 1D Image Analysis Software EDAS290 Version3.5. […]

A further experiment deals with VEGF gene. Put plainly: VEGF mRNA expression promotion in HFDPC (RT-PCR). The experiment is classed as cell-based, human. The settings on record: for mRNA expression promotion rate (%) VEGF mRNA: HFDPC, corrected by G3PDH, control = 100. On the procedure: as §1, §2, §3, §4
A further experiment relates to BMP-2 gene. As to the kind of experiment: BMP-2 mRNA expression promotion in HFDPC (RT-PCR). The experiment is classed as cell-based, human. The settings on record: for mRNA expression promotion rate (%) BMP-2 mRNA: HFDPC, corrected by G3PDH, control = 100. On the procedure:
as §1, §2, §3, §4

Setting [3] is: sample concentration 0.06 μg/ml.
The mark [4] stands for this setting: sample concentration 0.25 μg/ml.

Turning to `C[C@H]1[C@H](C)CC[C@]2(C(=O)O)CC[C@]3(C)C(=CC[C@@H]4[C@@]5(C)C[C@@H](O)[C@H](O)C(C)(C)[C@@H]5CC[C@]43C)[C@H]12` [Sample 1, corosolic acid], the IC50 in experiment [1] (S-9 rat liver homogenate, 37° C., 30 minutes, by interpolation, read-out: IC50 (sample concentration at which the inhibition rate of testosterone 5α-reductase is 50%) (converted)) is 1.18 mM. Moreover, the “testosterone 5α-reductase inhibiting action (in words)” value in experiment [1] (conclusion from Table 1) is reported as “excellent testosterone 5α-reductase inhibiting action”. For the same compound, the “hair papilla cell growth promoting action (in words)” value in experiment [2] (conclusion from Table 2) is recorded as “hair papilla cell growth promoting action”. The “Hair papilla cell growth promotion rate (%)” value in experiment [2] (sample concentration 1.56 μg/ml) was found to be 111.5 ± 2.2%; in experiment [2] (sample concentration 6.25 μg/ml) it was 106.1 ± 1.4%. The “promotion of mRNA expression of the FGF-7 gene (in words)” value in the experiment on FGF-7 gene (conclusion from Table 3) is “promote the mRNA expression”. Also, the “mRNA expression promotion rate (%) FGF-7 mRNA” value is listed as 122.9 ± 8.5% in the experiment with FGF-7 gene (setting [3]) and 124.8 ± 7.2% in the experiment with FGF-7 gene (setting [4]). Besides, the “promotion of mRNA expression of the VEGF gene (in words)” value in the experiment with VEGF gene (conclusion from Table 3) is on record as “promote the mRNA expression”. Moreover, the “mRNA expression promotion rate (%) VEGF mRNA” value amounted to 121.8 ± 3.5% with VEGF gene (setting [3]) and 106.7 ± 4.5% in the experiment with VEGF gene (setting [4]). Also, the “promotion of mRNA expression of the BMP-2 gene (in words)” value in the experiment with BMP-2 gene (conclusion from Table 3) is given as “promote the mRNA expression”. For the same compound, the figures for the “mRNA expression promotion rate (%) BMP-2 mRNA” value in the experiment on BMP-2 gene (setting [3]) and in the experiment with BMP-2 gene (setting [4]) were 105.3 ± 3.8% and 135.3 ± 5.5%, respectively.
